Laboratory results as given in ChEMBL document CHEMBL1201862, “PubChem BioAssay data set” (2004).
Activity calls are given as the source filed them.

Key:
[1] = target: Photoreceptor-specific nuclear receptor (Homo sapiens, UniProt Q9Y5X4); type: functional;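 also: potency for compounds that break the NR2E3 corepressor complex and count as activators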
[2] = target: Peroxisome proliferator-activated receptor gamma/Nuclear receptor coactivator 1 (Homo sapiens, UniProt P37231); assay: (§1) TR-FRET dose response biochemical High Throughput Screening assay for agonists of the steroid receptor coactivator 1 (SRC-1) recruitment by the peroxisome proliferator-activated receptor gamma (PPAR gamma): non-selective agonists. [Related pubchem assays (depositor defined):AID1300, AID1808, AID504735, AID631]; type: protein assay
[3] = target: Peroxisome proliferator-activated receptor gamma/Nuclear receptor coactivator 3 (Homo sapiens, UniProt P37231); assay: as §1, with “3 (SRC-3)” for “1 (SRC-1)”, “assays: 1301 (Confirmation screen.), 1048 (Primary screen.)]” for “assays (depositor defined):AID1300, AID1808, AID504735, AID631]”; type: functional
[4] = target: Peroxisome proliferator-activated receptor gamma/Nuclear receptor coactivator 2 (Homo sapiens, UniProt P37231); assay: TR-FRET dose response biochemical High Throughput Screening assay for agonists of the steroid receptor coactivator 2 (SRC-2) recruitment by the peroxisome proliferator-activated receptor gamma (PPAR gamma): non-selective agonists. [Related pubchem assays: 1297, 1032 ]; type: functional
[5] = target: Peroxisome proliferator-activated receptor gamma/Nuclear receptor corepressor 2 (Homo sapiens, UniProt P37231+Q9Y618); type: functional
Prothrombin = Prothrombin (Homo sapiens, UniProt P00734); assay: Thrombin 1536 HTS Dose Response Confirmation. [Related pubchem assays: 1046 (Thrombin 1536 HTS; hits were confirmed in this assay)]; type: functional
Phosphomannomutase 2 = target: T1, Phosphomannomutase 2 (Homo sapiens, UniProt O15305); assay: Counter screen SAR assay for PMM2 inhibitors via a fluorescence intensity assay. [Related pubchem assays (depositor defined):AID1545, AID1574]
T1 sequence (O15305 whole entry): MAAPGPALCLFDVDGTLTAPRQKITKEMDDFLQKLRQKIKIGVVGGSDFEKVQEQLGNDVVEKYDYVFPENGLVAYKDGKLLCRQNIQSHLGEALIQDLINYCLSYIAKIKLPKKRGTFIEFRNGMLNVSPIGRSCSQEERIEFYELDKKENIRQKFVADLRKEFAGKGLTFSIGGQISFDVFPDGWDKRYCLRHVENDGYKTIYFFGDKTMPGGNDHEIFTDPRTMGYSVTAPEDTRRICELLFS

[6] = A cytotoxicity screen of small molecule inhibitors of the PhoP region in Salmonella typhi identified in the primary screen. [Related pubchem assays: 1850, 1864, 1985 ]; type: functional
[7] = microbe, parasite or virus in culture; type: functional; conditions: Mycobacterium tuberculosis
[8] = THP-1 cell cytotoxicity, dose response, cytotoxicity control for non-replicating M. tuberculosis project (AID 489025); type: functional
[9] = Vero E6 cell cytotoxicity, dose response, cytotoxicity control for non-replicating M. tuberculosis project, secondary assay (AID 492998); type: functional, VeroE6; conditions: Vero C1008
cells = type: functional
Bcl-2-like protein 10 = target: T2, Bcl-2-like protein 10 (Homo sapiens, UniProt Q9HD36); assay: displacers of TR3 peptide from Bcl-B, primary screen, selectivity assay for Bfl-1 inhibitor project, biochemical, fluorescence polarization, FITC-TR3 peptide (AID 748);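 also: fluorescence polarization from a fluorescein-labelled TR3 peptide binding purified Bcl-B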
T2 sequence (Q9HD36 whole entry): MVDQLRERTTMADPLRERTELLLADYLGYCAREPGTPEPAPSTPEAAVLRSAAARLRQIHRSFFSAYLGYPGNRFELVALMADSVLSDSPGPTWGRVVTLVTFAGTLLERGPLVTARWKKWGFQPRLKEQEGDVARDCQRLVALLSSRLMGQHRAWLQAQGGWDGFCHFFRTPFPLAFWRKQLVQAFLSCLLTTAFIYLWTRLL

[10] = target: T3, Mannose-6-phosphate isomerase (Homo sapiens, UniProt P34949); assay: inhibitors of human PMI, primary screen, biochemical, fluorescence intensity, coupled assay (AID 1209)
T3 sequence (P34949 whole entry): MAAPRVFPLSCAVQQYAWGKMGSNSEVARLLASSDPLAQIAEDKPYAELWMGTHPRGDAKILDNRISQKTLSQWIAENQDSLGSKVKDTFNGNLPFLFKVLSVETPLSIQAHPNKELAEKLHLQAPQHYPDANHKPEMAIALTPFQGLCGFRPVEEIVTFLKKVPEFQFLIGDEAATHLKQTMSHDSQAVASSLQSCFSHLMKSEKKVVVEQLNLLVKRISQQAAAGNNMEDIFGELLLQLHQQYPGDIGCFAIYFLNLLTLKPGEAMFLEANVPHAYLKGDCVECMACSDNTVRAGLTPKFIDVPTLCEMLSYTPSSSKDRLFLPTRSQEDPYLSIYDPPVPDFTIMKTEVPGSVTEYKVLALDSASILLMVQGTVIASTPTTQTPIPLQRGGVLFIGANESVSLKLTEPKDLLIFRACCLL

14-3-3 protein gamma = target: T4, 14-3-3 protein gamma (Homo sapiens, UniProt P61981); assay: modulators of 14-3-3 gamma client binding – dose response (AID 711); type: functional
T4 sequence (P61981 whole entry): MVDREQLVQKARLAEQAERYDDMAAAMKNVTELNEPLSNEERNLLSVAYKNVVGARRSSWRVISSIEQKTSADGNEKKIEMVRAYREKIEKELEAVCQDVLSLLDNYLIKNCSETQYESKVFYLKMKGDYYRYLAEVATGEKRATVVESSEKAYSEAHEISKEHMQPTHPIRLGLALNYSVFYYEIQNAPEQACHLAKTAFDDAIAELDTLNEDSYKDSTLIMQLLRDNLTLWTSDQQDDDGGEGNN

Estrogen receptor = target: T5, Estrogen receptor (Homo sapiens, UniProt P03372);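 also: potency for inhibiting coactivator peptide recruitment to the receptor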
T5 sequence (P03372 whole entry): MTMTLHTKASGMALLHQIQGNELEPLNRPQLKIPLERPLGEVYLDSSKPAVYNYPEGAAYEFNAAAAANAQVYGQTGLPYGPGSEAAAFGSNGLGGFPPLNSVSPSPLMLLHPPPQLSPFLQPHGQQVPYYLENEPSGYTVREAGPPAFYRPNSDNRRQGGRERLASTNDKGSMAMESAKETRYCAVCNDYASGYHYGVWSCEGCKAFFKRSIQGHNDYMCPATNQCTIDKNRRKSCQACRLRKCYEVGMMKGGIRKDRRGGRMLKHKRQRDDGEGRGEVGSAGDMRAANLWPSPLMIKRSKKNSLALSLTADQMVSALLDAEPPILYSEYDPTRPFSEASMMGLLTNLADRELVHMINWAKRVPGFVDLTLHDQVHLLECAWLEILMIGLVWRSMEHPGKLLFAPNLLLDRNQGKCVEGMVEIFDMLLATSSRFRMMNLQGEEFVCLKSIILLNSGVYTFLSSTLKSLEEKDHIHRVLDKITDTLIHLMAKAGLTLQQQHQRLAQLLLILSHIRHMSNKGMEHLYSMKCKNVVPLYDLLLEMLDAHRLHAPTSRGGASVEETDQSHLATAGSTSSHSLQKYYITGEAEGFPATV

Beta-galactosidase = Beta-galactosidase (Escherichia coli, UniProt Q8VNN2); assay: beta-galactosidase enzyme inhibitors and activators, dose response, artefact control for CCR6 antagonist project, biochemical, E. coli enzyme, set 3 (AID 504712); type: functional
[11] = target: Heat shock protein HSP 90-alpha (Homo sapiens, UniProt P07900); type: functional, organism-based
[12] = target: Eukaryotic translation initiation factor 4H (Homo sapiens, UniProt Q15056); assay: human eIF4H binding inhibitors, primary screen, translation initiation inhibitor project, biochemical, uHTS, fluorescence polarization (AID 2012)
[13] = target: Polyadenylate-binding protein 1 (Homo sapiens, UniProt P11940); assay: PABP poly(A) RNA binding inhibitors, primary screen, biochemical, fluorescence polarization, uHTS (AID 2014)
[14] = Luminescence Cell-Based Dose Confirmation HTS to Identify Activators of 5'UTR Stem-Loop Driven Alpha-Synuclein mRNA Translation in H4 Neuroglioblastoma Cells. [Related pubchem assays: 1829 (Project Summary), 1814 (Primary HTS)]; type: functional
[15] = Luminescence Cell-Based Dose Response HTS to Identify Activators of Luciferase Translation or Activity in H4 […] Cells. [Related pubchem assays: 1829 (Project Summary), 1814 (Primary HTS)]; type: functional
H4 = assay: Luminescence Cell-Based Dose Response HTS to Identify Activators of 5'UTR Stem-Loop Driven Prion Protein mRNA Translation in H4 Neuroglioblastoma Cells. [Related pubchem assays: 1829 (Project Summary), 1814 (Primary HTS)]; type: functional; conditions: Homo sapiens
[16] = M. tuberculosis H37Rv growth inhibitors, H37Rv strain (AID 1626); type: functional
[17] = target: Induced myeloid leukemia cell differentiation protein Mcl-1 (Homo sapiens, UniProt Q07820); type: functional
Induced myeloid leukemia cell differentiation protein Mcl-1, sequence (Q07820 whole entry): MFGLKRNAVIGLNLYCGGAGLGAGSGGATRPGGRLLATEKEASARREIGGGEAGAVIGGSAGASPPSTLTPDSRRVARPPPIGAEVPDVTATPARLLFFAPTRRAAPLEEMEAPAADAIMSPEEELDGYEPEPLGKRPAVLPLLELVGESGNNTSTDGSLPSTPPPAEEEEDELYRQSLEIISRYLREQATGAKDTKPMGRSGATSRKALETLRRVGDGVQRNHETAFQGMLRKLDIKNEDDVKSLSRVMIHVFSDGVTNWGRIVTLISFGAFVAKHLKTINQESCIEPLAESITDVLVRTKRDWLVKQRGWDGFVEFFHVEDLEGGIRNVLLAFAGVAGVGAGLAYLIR

Peroxisome proliferator-activated receptor gamma/Nuclear receptor corepressor 2, sequence (P37231 whole entry): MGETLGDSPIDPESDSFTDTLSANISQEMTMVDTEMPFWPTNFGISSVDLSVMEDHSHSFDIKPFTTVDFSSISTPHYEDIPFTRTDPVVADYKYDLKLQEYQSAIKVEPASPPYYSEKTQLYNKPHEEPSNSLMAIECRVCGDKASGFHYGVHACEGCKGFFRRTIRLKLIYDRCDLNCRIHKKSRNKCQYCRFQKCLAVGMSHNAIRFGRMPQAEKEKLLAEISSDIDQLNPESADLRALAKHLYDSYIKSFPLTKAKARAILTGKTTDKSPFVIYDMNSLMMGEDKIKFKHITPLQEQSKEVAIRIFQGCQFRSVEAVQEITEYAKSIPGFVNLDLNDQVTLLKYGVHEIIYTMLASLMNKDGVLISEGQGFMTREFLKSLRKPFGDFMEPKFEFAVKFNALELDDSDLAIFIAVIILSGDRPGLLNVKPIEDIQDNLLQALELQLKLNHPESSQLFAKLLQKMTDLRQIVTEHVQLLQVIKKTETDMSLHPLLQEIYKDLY
Peroxisome proliferator-activated receptor gamma/Nuclear receptor corepressor 2, sequence (Q9Y618 whole entry): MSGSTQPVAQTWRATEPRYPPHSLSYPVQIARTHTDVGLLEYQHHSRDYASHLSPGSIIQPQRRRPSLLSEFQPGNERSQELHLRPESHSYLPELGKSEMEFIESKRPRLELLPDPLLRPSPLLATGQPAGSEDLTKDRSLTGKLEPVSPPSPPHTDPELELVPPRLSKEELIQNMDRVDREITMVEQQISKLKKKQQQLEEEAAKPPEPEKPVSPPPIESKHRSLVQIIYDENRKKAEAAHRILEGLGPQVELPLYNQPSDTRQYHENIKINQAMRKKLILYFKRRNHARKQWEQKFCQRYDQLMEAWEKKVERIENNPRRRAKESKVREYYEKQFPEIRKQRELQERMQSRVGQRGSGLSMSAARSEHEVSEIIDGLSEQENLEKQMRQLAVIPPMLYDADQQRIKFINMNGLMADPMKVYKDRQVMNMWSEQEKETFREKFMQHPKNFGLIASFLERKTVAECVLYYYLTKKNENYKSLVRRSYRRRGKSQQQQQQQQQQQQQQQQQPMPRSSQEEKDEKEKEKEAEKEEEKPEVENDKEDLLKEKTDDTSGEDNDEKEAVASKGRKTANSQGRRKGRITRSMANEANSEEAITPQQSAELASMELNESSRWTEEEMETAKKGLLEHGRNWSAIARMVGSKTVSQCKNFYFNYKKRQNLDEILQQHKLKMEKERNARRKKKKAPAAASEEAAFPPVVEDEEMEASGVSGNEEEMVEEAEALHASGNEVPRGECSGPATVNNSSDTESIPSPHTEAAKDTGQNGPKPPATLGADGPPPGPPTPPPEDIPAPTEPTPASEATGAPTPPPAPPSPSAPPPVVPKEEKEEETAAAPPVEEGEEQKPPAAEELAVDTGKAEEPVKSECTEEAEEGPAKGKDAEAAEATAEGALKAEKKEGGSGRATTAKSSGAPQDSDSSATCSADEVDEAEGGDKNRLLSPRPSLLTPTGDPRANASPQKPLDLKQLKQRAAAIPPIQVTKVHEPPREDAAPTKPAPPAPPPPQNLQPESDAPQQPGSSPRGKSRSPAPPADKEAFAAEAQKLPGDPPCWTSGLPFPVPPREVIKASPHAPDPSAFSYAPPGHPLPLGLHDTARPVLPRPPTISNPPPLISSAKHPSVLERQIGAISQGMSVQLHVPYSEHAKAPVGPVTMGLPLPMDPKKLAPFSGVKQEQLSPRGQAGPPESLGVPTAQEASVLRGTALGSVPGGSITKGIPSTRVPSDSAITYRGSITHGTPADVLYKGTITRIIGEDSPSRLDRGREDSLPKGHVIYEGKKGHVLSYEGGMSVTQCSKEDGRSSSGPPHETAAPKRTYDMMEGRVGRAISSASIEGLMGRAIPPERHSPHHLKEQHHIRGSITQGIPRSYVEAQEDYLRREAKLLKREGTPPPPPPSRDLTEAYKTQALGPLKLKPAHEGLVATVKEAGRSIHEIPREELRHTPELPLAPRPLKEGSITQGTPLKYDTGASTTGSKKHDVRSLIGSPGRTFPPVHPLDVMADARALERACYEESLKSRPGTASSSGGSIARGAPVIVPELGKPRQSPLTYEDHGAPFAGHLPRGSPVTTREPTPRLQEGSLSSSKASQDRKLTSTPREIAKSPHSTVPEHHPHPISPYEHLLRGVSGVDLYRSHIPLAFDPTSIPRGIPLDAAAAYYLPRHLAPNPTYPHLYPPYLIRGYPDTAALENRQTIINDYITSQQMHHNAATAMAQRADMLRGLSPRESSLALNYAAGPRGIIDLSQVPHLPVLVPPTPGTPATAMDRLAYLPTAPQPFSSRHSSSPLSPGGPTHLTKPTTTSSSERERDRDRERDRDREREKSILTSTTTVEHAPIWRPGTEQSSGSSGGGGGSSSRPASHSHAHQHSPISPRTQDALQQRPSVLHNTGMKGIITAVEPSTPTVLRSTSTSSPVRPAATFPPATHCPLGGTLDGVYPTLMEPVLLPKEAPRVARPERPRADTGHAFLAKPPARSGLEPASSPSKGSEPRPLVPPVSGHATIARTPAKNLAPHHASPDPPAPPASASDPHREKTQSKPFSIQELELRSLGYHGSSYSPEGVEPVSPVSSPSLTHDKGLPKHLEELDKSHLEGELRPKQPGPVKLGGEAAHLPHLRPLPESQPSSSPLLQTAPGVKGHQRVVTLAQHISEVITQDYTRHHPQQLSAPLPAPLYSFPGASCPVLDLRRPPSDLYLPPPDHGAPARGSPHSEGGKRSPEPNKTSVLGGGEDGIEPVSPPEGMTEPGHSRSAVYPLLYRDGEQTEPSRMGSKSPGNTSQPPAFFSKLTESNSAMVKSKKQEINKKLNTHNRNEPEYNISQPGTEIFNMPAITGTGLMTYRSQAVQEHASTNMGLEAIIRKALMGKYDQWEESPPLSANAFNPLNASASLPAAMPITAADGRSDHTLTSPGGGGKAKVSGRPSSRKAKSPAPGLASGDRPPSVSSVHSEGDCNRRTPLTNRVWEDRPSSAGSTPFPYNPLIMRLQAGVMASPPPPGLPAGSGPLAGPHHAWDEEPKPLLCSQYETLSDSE
Photoreceptor-specific nuclear receptor, sequence (Q9Y5X4 whole entry): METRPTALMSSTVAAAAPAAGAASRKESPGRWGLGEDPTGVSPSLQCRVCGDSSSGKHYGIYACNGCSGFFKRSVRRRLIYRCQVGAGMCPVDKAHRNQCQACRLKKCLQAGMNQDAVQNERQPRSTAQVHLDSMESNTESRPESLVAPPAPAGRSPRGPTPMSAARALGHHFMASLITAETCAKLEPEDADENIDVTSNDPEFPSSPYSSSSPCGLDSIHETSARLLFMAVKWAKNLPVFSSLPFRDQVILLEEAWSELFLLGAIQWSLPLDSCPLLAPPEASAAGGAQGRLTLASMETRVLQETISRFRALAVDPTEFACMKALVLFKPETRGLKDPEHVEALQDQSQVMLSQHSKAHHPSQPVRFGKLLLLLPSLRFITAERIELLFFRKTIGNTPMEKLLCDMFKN
Polyadenylate-binding protein 1, sequence (P11940 whole entry): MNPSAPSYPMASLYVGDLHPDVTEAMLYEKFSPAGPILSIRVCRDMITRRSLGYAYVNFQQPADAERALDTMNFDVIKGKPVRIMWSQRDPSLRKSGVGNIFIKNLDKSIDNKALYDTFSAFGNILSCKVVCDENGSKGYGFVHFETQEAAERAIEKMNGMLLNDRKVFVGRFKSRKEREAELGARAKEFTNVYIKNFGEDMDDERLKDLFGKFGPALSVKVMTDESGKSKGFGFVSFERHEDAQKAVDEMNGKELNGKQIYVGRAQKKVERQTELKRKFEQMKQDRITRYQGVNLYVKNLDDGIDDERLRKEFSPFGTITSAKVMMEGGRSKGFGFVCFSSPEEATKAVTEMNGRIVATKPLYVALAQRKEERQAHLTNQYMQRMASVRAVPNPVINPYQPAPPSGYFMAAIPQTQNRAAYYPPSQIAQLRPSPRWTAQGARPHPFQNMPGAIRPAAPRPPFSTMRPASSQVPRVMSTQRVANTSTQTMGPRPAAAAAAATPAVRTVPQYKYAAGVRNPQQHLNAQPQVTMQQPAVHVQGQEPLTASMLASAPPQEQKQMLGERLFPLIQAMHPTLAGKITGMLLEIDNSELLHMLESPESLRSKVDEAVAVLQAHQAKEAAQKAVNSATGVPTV

CN(C)CCCN1C(=O)C(O)=C(C(=O)c2cc3ccccc3o2)C1c1ccccc1 (stereo not drawn)
IC50 [1]: > 39.8 µM (not active) | EC50 [2]: 6.07 µM (active) | EC50 [3]: > 79.4 µM (not active) | EC50 [4]: 4.26 µM (active) | IC50 [5]: 5.04 µM (active)

CCOc1cc(C2NC(=O)NC(O)(C(F)(F)F)C2C(=O)c2ccc(Cl)cc2)ccc1O (stereo not drawn)
IC50 (Prothrombin): > 50 µM (not active)

CC(=O)n1nc(-c2ccc(C)cc2)nc1NCc1ccco1
IC50 (Prothrombin): 1.82 µM (active)

Cc1ccc(C)c(-n2[nH]c3ccccc3c2=O)c1
IC50 (Phosphomannomutase 2): > 100 µM (inactive)

COC(=O)Cn1cc(C(=O)c2cccs2)c2ccccc21
IC50 (Prothrombin): > 50 µM (inconclusive)

C(=N/Nc1nccs1)/c1cccnc1
EC50 [6]: > 50 µM (active)

Cc1cc(CC(C)C)n(-c2nc3ccccc3c(=O)n2OCC(N)=O)n1
CC50 [7]: > 40 µM (active) | CC50 [8]: > 40 µM (active) | CC50 [9]: > 20 µM (active) | IC50 (cells): 8.85 µM (active)

Cc1cc(C)c(NC(=O)CN(c2ccccc2)S(=O)(=O)N(C)C)c(C)c1
IC50 (Bcl-2-like protein 10): 69.2 µM (inactive)

Cn1c(=O)[nH]c(=O)c2c1nc(Br)n2C/C=N/Nc1ccccc1
IC50 [10]: > 50 µM (not active)

Cc1ccc(-n2c(=S)[nH]c3c(oc4ccccc43)c2=O)cc1C
IC50 [1]: 4.11 µM (active) | IC50 [5]: 7.61 µM (active)

Cc1ccc(C(=O)NCC(C)(C)O)cc1
IC50 (14-3-3 protein gamma): > 50 µM (not active)

Cc1cccc2cc(C(c3nnnn3C(C)(C)C)N(Cc3ccco3)CC3CCCO3)c(=O)[nH]c12 (stereo not drawn)
IC50 (Bcl-2-like protein 10): > 100 µM (inactive) | IC50 (Estrogen receptor): 13.3 µM (active)

Cc1cc(C)cc(N2C(=O)C=CC2=O)c1
IC50 (Beta-galactosidase): > 66.6 µM (inactive) | AC50 [11]: 0.499 µM (active)

COc1cccc2cc(-c3cc(=O)oc4ccc(O)cc34)oc12
IC50 [12]: 43.1 µM (active) | IC50 [13]: > 100 µM (inactive)

Nc1ccccc1Nc1cc(-c2ccccc2)[nH]n1
EC50 [14]: 14.1 µM (active) | EC50 [15]: 19.8 µM (active) | EC50 (H4): 12.1 µM (active) | IC50 [16]: > 100 µM (active)

Cc1cc(NS(=O)(=O)c2ccc(Nc3nc(-c4sc(NC(=O)c5ccccc5)nc4C)cs3)cc2)no1
EC50 [6]: > 50 µM (active) | IC50 [17]: 2.46 µM (active)

COc1ccc(C(=O)NNC(=O)C(Cc2ccc(O)cc2)NC(=O)c2ccccc2NC(=O)c2ccc(OC)cc2)cc1 (stereo not drawn)
IC50 [1]: > 39.8 µM (not active) | IC50 [5]: > 39.8 µM (not active)

COc1ccc(NC(=O)CCc2nc(-c3ccccc3F)no2)cc1
IC50 [16]: > 100 µM (active)

COc1ccc(NC(=O)CSC2=NCCN2)cc1
IC50 [16]: > 100 µM (active)

CCOc1ccc(-n2cc(C(=O)N3CCN(C)CC3)c3cc(OC)c(OC)cc3c2=O)cc1
IC50 (14-3-3 protein gamma): > 50 µM (not active)

O=C(NCc1ccco1)C1c2ccccc2Oc2ccccc21
IC50 [12]: 15.7 µM (active) | IC50 [13]: 71.3 µM (active)
